Data set [1] can be described thus: Inhibition of N-terminal his 6 tagged recombinant Trypanosoma brucei PTR1 expressed in Escherichia coli BL21 (DE3) cells preincubated for 10 mins followed by NADPH addition and measured after 10 to 50 mins by multilabel plate reader method. It counts as cell-based.
The target of the next data set is T1, Pteridine reductase 1 (Leishmania major, UniProt Q01782).
T1 sequence (Q01782 whole entry): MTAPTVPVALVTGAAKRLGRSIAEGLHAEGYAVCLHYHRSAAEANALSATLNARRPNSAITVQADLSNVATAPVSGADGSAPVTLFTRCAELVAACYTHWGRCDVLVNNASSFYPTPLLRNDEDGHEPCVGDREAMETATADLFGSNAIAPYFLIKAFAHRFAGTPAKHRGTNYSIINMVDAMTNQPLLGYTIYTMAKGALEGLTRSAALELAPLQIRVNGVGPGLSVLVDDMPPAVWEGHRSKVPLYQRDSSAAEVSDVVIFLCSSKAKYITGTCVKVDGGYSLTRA
In words: Inhibition of N-terminal his 6 tagged recombinant Leishmania major PTR1 expressed in Escherichia coli BL21 (DE3) cells preincubated for 10 mins followed by NADPH addition and measured after 10 to 50 mins by multilabel plate reader method.

The subject of data set [2] is Trypanosoma brucei. The experiment in a line: Antiparasitic activity against blood stream form Trypanosoma brucei assessed as parasitic growth inhibition incubated for 72 hrs by resazurin dye based fluorescence analysis. It is filed as functional, organism-based.
The next data set deals with THP-1. The experiment in a line: Cytotoxicity against human THP-1 cells assessed as reduction in cell viability measured after 72 hrs by MTT assay. It counts as functional.
Data set [3] in a line: Selectivity index, ratio of CC50 for human THP-1 cells to EC50 for bloodstream form Trypanosoma brucei. It is filed as toxicity. Particulars: read-out: Ratio CC50/EC50.
Another data set has as its system Leishmania infantum. The experiment in a line: Antiparasitic activity against Leishmania infantum intracellular amastigotes MHOM/BR/1972/BH46 infected in human THP-1 cells assessed as inhibition of parasitic growth at 50 uM pre-infected for 24 hrs followed by compound addition and measured after 48 hrs relative to control. The following applies: MHOM/BR/1972/BH46, THP-1. It is filed as functional.

The target of data set [4] is Voltage-gated inwardly rectifying potassium channel KCNH2 (Homo sapiens, UniProt Q12809). The experiment in a line: Inhibition of human ERG incubated for 2 hrs by fluorescence polarization assay. It counts as toxicity.
Voltage-gated inwardly rectifying potassium channel KCNH2, sequence (Q12809 whole entry): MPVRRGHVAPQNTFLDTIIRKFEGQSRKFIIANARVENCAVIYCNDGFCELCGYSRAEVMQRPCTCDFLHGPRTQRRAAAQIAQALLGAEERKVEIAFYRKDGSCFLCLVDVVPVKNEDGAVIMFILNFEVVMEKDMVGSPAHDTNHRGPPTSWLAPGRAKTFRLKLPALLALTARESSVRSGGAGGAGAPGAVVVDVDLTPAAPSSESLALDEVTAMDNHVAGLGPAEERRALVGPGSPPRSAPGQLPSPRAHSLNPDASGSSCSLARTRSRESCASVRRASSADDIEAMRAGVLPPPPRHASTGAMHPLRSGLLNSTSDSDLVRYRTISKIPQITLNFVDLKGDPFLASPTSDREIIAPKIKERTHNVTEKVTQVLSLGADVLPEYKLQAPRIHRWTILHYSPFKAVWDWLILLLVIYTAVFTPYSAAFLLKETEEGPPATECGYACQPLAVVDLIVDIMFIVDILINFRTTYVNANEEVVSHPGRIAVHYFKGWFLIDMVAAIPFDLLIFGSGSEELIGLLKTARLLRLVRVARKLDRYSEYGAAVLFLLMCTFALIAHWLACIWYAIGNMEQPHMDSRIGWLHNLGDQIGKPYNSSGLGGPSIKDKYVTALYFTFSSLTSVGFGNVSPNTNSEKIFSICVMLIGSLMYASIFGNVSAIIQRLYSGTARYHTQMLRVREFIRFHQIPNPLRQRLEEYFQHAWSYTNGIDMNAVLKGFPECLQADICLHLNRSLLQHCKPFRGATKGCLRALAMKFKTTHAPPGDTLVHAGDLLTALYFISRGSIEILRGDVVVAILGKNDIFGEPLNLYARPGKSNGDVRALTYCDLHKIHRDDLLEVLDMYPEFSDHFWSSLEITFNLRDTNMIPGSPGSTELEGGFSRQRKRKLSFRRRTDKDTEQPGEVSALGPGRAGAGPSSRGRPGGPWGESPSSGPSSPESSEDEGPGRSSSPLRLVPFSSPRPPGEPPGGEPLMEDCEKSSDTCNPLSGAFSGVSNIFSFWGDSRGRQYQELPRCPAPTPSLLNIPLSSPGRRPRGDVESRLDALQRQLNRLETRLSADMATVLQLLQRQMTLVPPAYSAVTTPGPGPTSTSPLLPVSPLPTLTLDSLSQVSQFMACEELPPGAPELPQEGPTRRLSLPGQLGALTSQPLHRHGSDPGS
In a further data set the target is Cytochrome P450 2C9 (Homo sapiens, UniProt P11712). In words: Inhibition of CYP2C9 (unknown origin) expressed in baculovirus infected insect cells using luciferin as substrate preincubated for 30 mins followed by NADPH addition and measured after 30 mins by luminescence based analysis. It is filed as ADME, Insect cell.
Cytochrome P450 2C9, sequence (P11712 whole entry): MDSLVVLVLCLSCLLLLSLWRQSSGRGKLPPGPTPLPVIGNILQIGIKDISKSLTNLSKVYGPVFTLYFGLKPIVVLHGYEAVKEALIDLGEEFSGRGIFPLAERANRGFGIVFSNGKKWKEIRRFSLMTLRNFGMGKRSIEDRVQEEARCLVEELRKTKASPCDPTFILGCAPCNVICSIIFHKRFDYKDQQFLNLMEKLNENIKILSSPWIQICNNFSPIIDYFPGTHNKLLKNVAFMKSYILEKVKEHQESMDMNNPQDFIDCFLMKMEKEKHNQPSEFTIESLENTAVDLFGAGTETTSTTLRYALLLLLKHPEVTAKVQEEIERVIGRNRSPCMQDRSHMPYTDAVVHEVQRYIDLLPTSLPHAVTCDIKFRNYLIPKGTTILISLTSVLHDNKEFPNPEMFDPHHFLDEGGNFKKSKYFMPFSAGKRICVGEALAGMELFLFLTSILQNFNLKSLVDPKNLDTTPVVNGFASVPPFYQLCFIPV
Another data set concerns the target T2, Cytochrome P450 1A2 (Homo sapiens, UniProt P05177).
T2 sequence (P05177 whole entry): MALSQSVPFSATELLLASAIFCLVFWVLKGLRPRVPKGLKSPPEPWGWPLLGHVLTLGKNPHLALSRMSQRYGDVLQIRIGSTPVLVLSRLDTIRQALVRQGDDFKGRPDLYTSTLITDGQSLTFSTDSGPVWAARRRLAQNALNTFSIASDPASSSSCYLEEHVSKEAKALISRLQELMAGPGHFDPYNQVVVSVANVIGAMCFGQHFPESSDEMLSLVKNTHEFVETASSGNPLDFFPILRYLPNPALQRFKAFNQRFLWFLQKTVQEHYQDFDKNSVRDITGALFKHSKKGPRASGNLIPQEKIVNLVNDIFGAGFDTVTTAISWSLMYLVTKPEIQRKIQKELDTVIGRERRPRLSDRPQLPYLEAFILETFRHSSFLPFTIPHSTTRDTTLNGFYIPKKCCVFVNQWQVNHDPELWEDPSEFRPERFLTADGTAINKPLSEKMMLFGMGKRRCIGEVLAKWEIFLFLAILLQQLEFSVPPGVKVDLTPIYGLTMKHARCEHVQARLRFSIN
The experiment in a line: Inhibition of CYP1A2 (unknown origin) expressed in baculovirus infected insect cells using luciferin as substrate preincubated for 30 mins followed by NADPH addition and measured after 30 mins by luminescence based analysis. It is filed as ADME, Insect cell.

The target in a further data set is Cytochrome P450 2C19 (Homo sapiens, UniProt P33261). The experiment in a line: Inhibition of CYP2C19 (unknown origin) expressed in baculovirus infected insect cells using luciferin as substrate preincubated for 30 mins followed by NADPH addition and measured after 30 mins by luminescence based analysis. It is filed as ADME, Insect cell.
Cytochrome P450 2C19, sequence (P33261 whole entry): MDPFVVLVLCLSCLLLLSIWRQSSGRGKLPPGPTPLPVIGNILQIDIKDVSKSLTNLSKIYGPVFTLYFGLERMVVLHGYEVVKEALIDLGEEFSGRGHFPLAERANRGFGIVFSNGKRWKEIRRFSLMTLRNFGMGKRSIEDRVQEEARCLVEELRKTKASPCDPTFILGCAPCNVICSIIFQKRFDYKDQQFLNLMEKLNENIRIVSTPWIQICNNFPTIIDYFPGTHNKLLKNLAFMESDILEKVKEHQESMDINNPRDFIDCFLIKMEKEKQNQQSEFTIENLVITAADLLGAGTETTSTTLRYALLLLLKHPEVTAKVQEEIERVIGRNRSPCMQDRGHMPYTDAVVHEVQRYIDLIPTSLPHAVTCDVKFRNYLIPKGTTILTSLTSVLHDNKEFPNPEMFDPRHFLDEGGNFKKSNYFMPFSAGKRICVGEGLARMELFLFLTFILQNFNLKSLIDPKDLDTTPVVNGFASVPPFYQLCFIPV
For the next data set, the target named is Cytochrome P450 2D6 (Homo sapiens, UniProt P10635). The experiment in a line: Inhibition of CYP2D6 (unknown origin) expressed in baculovirus infected insect cells using luciferin as substrate preincubated for 30 mins followed by NADPH addition and measured after 30 mins by luminescence based analysis. It counts as ADME, Insect cell.
Cytochrome P450 2D6, sequence (P10635 whole entry): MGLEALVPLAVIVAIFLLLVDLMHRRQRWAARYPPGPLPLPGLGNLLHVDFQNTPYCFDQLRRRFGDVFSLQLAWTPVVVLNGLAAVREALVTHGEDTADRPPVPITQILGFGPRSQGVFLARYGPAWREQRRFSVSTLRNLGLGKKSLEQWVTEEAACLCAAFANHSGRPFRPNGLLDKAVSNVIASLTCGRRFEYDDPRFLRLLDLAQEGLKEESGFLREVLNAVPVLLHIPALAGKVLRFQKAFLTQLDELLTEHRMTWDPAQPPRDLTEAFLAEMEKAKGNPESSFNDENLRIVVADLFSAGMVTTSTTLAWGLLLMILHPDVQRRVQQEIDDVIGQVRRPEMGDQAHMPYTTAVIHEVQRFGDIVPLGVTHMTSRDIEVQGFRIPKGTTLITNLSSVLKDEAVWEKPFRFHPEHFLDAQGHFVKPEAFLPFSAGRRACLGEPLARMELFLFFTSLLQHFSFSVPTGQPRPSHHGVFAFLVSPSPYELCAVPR
In another data set the target is Cytochrome P450 3A4 (Homo sapiens, UniProt P08684). The experiment in a line: Inhibition of CYP3A4 (unknown origin) expressed in baculovirus infected insect cells using luciferin as substrate preincubated for 30 mins followed by NADPH addition and measured after 30 mins by luminescence based analysis. It counts as ADME, Insect cell.
Cytochrome P450 3A4, sequence (P08684 whole entry): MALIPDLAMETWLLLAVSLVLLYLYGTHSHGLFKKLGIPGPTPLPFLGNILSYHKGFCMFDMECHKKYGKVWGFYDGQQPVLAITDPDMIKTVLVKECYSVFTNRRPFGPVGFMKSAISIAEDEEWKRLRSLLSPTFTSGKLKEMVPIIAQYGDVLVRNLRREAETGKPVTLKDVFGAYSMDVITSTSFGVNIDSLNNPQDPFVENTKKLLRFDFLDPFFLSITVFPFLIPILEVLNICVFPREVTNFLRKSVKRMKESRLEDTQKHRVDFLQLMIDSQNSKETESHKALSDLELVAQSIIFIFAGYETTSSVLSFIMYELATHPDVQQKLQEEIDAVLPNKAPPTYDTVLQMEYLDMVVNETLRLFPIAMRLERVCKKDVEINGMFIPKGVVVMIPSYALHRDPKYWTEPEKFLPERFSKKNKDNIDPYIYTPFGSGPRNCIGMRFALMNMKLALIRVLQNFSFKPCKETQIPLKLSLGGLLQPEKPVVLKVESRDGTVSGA
The next data set concerns hERG. In words: Selectivity index, ratio of IC50 for human ERG to EC50 for blood stream form Trypanosoma brucei. It is filed as toxicity. The following applies: read-out: Ratio IC50/EC50.
Another data set concerns CYP1A2. The experiment in a line: Selectivity index, ratio of IC50 for CYP1A2 (unknown origin) to EC50 for blood stream form Trypanosoma brucei. It counts as toxicity. Particulars: read-out: Ratio IC50/EC50.
In a further data set the test system is CYP2C9. In words: Selectivity index, ratio of IC50 for CYP2C9 (unknown origin) to EC50 for blood stream form Trypanosoma brucei. The following applies: read-out: Ratio IC50/EC50. It counts as toxicity.
The next data set has as its system CYP2C19. In words: Selectivity index, ratio of IC50 for CYP2C19 (unknown origin) to EC50 for blood stream form Trypanosoma brucei. It counts as toxicity. The following applies: read-out: Ratio IC50/EC50.
The next data set concerns CYP2D6. In words: Selectivity index, ratio of IC50 for CYP2D6 (unknown origin) to EC50 for blood stream form Trypanosoma brucei. The following applies: read-out: Ratio IC50/EC50. It counts as toxicity.
In another data set the test system is CYP3A4. The experiment in a line: Selectivity index, ratio of IC50 for CYP3A4 (unknown origin) to EC50 for blood stream form Trypanosoma brucei. It counts as toxicity. Particulars: read-out: Ratio IC50/EC50.
Data set [5] can be described thus: Growth inhibition of human A549 cells measured after 48 hrs by celltiter-glo assay. It is filed as toxicity, cell-based. For orientation: In ATP-based viability assays light output follows the ATP content of the culture.
The nature of data set [6]: Mitochondrial toxicity in human A549 cells. It counts as cell-based.
Data set [7] in a line: Selectivity index, ratio of GI50 for human A549 cells to EC50 for blood stream form Trypanosoma brucei. Particulars: read-out: Ratio GI50/EC50. It is filed as toxicity.
Data set [8] can be described thus: Selectivity index, ratio of IC50 for human A549 cells to EC50 for blood stream form Trypanosoma brucei. It counts as toxicity. Particulars: read-out: Ratio IC50/EC50.
Data set [9] can be described thus: Cmax in BALB/c mouse at 20 mg/kg, po measured upto 24 hrs by LC-MS/MS analysis. It counts as ADME, organism-based. The following applies: in vivo.
A short description of data set [10]: Tmax in BALB/c mouse at 20 mg/kg, po measured upto 24 hrs by LC-MS/MS analysis. It counts as ADME, organism-based. Particulars: in vivo.
A short description of data set [11]: AUC last in BALB/c mouse at 20 mg/kg, po measured upto 24 hrs by LC-MS/MS analysis. It counts as ADME, organism-based. The following applies: in vivo.
Data set [12] in a line: Half life in BALB/c mouse at 20 mg/kg, po measured upto 24 hrs by LC-MS/MS analysis. It is filed as ADME, organism-based. The following applies: in vivo.
The subject of data set [13] is Trypanosoma brucei. In words: Anti-parasitic activity against Trypanosoma brucei infected in BALB/c mouse model assessed as reduction of parasitemia at 20 mg/kg administered daily. It counts as functional, organism-based.
Data set [14] deals with Trypanosoma brucei. The experiment in a line: Anti-parasitic activity against Trypanosoma brucei infected in BALB/c mouse model assessed as reduction of parasitemia at 5 mg/kg/day, ip relative to control. The arrangement: scale not given: the % may be the effect or the level left. It counts as functional.

SMILES strings stand for the structures. Calls of active or inactive are those of the source. Some results are limits rather than exact numbers.

What is called IC50 is the midpoint of a concentration-inhibition curve. As a reminder, the EC50 is the concentration giving half of the maximal effect. In general, CC50 refers to the concentration at which the toxic effect on the cells reaches its halfway point. The inhibition is how much of the control response was suppressed. The GI50 is the concentration giving 50% growth inhibition. As usually defined, the Cmax is the maximum level reached in the sampled fluid or tissue. A word on the Tmax: it is the time at which the peak concentration occurs. By AUC(0-t) is commonly meant the area under the concentration-time curve up to a stated or last time point. The half-life is the time needed for the level to fall by half in the phase considered.

For `Nc1nc(N)c(C(C[N+](=O)[O-])c2csc3ccccc23)c(N)n1` (stereo unspecified), the IC50 in data set [1] came out at 0.3 µM; at Pteridine reductase 1 it was 47.4 µM; in data set [4], 16 µM; against Cytochrome P450 2C9, 24.4 µM; against Cytochrome P450 1A2, 3 µM; on Cytochrome P450 2C19 it was 15.3 µM. The IC50 was 10.2 µM against Cytochrome P450 2D6, above 100 µM on Cytochrome P450 3A4 and 10.4 µM in data set [6]. Further, the 50% effective concentration (EC50) in the data set with Trypanosoma brucei [2] stood at 0.09 µM. In addition, the CC50 in the data set with THP-1 stood at 12.5 µM. Further, the selectivity ratio in data set [3] is 139; in the data set on hERG, 178; in the data set with CYP1A2, 33; in the data set with CYP2C9, 271; with CYP2C19 it was 170; in the data set with CYP2D6, 113. The selectivity ratio in the data set on CYP3A4 is above 1100; in data set [7], 117; in [8], 115. Also, the inhibition at 50 µM in the data set on Leishmania infantum was determined as 49%. This compound also displayed a GI50 at 48 h in data set [5] of 10.6 µM. This compound yielded a Cmax in data set [9] of 828 ng/mL. Besides, the Tmax in data set [10] worked out at 1 h. This compound yielded an AUC(0-t) at 24 h in data set [11] of 5290 ng·h/mL. The half-life in [12] is 2.1 h. Besides, the outcome in the data set on Trypanosoma brucei [13] was inactive.
Take `N=C(N)c1ccc(OCCCCCOc2ccc(C(=N)N)cc2)cc1` [PENTAMIDINE]: the IC50 at Pteridine reductase 1 stood at 87.1 µM. Besides, in the data set on Trypanosoma brucei [2], the EC50 worked out at 0.004 µM. Moreover, in the data set on Trypanosoma brucei [14], the Activity came to 100%.
As for `Nc1nc(N)c(C(C[N+](=O)[O-])c2ccccc2OCc2ccc(Cl)c(Cl)c2)c(N)n1` (stereo unspecified), the half-maximal inhibitory concentration (IC50) in data set [1] is 0.27 µM; on Pteridine reductase 1 it was 46 µM; in data set [4], above 100 µM; at Cytochrome P450 2C9, 3.2 µM; against Cytochrome P450 1A2 it was 1.2 µM; at Cytochrome P450 2C19, 8 µM. Besides, the IC50 on Cytochrome P450 2D6 was 5.9 µM; at Cytochrome P450 3A4, 5.9 µM; in data set [6] it was 3.9 µM. In addition, the EC50 in the data set with Trypanosoma brucei [2] came out at 0.3 µM. Moreover, in the data set on THP-1, the CC50 stood at 25 µM. The selectivity ratio in data set [3] is 83; in the data set on hERG, above 300; in the data set on CYP1A2, 4; in the data set on CYP2C9, 11; in the data set with CYP2C19 it was 26; in the data set with CYP2D6, 20. For the same compound, the selectivity ratio in the data set on CYP3A4 was 20; in [7] it was 33; in [8], 13. Moreover, in the data set with Leishmania infantum, the inhibition at 50 µM stood at 11.7%. Also, the GI50 at 48 h in data set [5] was found to be 10 µM. This compound also came in with a peak concentration (Cmax) in [9] of 373 ng/mL. The time of peak concentration (Tmax) in [10] turned out to be 0.5 h. The same compound yielded an AUC(0-t) at 24 h in data set [11] of 1180 ng·h/mL. This compound had a half-life in data set [12] of 3 h.
